For experiment [1], the target named is T1, Protein kinase C iota type (Homo sapiens) (UniProt P41743).
T1 sequence (whole entry): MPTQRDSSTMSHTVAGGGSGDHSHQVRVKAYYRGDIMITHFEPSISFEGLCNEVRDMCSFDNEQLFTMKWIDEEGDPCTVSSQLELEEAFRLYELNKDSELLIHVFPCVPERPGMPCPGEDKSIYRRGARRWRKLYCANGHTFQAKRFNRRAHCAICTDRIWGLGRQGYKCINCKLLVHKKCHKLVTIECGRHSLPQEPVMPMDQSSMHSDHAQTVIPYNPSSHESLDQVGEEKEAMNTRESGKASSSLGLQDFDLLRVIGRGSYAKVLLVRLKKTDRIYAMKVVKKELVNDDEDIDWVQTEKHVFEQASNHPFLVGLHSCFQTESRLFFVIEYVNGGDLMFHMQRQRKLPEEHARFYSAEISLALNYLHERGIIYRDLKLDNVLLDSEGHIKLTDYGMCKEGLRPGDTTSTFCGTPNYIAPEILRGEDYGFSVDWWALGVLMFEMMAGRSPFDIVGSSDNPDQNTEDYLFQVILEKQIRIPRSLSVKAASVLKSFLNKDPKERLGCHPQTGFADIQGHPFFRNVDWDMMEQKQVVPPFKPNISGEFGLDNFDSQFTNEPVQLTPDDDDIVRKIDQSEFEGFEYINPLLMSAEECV
The note with it: at 10 µM.

For experiment [2], the target named is Ribosomal protein S6 kinase alpha-3 (Homo sapiens, UniProt P51812). The experiment is described as follows: Selectivity interaction (ActivX KiNativ screen (kinase selectivity in THP-1 cell lysates)) EUB0000639a RPS6KA3. The class given is subcellular. Conditions: lysate, at 0.01 µM.
Sequence of Ribosomal protein S6 kinase alpha-3 (P51812 whole entry): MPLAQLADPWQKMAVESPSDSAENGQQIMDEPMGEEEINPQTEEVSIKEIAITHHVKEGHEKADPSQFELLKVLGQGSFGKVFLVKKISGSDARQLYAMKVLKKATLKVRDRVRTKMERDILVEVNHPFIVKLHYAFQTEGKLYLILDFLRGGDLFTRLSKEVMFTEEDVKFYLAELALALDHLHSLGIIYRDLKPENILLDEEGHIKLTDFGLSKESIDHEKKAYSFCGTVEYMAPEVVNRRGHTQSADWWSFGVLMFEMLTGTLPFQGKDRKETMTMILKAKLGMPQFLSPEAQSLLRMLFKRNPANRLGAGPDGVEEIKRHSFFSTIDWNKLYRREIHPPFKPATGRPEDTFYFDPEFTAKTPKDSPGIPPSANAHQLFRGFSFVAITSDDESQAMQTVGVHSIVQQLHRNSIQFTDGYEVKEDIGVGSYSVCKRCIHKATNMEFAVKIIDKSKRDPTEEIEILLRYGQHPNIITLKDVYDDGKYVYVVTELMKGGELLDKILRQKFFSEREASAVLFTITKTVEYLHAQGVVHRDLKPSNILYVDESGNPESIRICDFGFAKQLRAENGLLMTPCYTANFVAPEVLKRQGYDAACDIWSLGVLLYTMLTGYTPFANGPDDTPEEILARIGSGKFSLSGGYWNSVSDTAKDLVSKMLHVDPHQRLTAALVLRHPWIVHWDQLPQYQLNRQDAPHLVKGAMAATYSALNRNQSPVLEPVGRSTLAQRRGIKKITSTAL
The target in experiment [3] is T2, Serine/threonine-protein kinase tousled-like 1 (Homo sapiens) (UniProt Q9UKI8).
T2 sequence (whole entry): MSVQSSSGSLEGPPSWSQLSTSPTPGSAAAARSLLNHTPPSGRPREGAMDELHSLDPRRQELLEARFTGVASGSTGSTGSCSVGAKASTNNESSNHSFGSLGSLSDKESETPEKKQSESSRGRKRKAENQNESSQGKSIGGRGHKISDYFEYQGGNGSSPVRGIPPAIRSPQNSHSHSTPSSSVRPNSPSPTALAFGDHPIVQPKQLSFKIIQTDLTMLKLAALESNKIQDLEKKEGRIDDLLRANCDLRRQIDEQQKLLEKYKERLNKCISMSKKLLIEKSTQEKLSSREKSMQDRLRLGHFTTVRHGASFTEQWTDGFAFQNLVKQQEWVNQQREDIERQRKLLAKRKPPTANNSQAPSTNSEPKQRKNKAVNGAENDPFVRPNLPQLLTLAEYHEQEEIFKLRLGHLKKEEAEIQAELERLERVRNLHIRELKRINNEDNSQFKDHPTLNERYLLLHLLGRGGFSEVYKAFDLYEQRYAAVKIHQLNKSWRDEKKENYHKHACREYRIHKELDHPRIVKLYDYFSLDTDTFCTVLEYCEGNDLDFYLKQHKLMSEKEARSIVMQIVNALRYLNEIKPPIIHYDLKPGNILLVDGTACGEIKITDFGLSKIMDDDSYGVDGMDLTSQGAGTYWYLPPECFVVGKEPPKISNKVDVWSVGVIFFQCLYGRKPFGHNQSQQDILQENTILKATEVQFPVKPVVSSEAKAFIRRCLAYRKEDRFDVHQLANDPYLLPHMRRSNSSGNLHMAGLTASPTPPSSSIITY
The experiment is described as follows: Selectivity interaction (ActivX KiNativ screen (kinase selectivity in THP-1 cell lysates)) EUB0000639a TLK1. In kind it is subcellular. The note with it: lysate, at 5 µM.

Experiment [4] has as its target MAP kinase-activated protein kinase 2 (Homo sapiens, UniProt P49137). The experiment is described as follows: Selectivity interaction (KinomeScan (DiscoverX)) EUB0000045b MAPKAPK2.
The target in experiment [5] is ALK tyrosine kinase receptor (Homo sapiens, UniProt Q9UM73). Briefly: Selectivity interaction (KinomeScan (DiscoverX)) EUB0000045b ALK.
Sequence of ALK tyrosine kinase receptor (Q9UM73 19-1620 limits assumed): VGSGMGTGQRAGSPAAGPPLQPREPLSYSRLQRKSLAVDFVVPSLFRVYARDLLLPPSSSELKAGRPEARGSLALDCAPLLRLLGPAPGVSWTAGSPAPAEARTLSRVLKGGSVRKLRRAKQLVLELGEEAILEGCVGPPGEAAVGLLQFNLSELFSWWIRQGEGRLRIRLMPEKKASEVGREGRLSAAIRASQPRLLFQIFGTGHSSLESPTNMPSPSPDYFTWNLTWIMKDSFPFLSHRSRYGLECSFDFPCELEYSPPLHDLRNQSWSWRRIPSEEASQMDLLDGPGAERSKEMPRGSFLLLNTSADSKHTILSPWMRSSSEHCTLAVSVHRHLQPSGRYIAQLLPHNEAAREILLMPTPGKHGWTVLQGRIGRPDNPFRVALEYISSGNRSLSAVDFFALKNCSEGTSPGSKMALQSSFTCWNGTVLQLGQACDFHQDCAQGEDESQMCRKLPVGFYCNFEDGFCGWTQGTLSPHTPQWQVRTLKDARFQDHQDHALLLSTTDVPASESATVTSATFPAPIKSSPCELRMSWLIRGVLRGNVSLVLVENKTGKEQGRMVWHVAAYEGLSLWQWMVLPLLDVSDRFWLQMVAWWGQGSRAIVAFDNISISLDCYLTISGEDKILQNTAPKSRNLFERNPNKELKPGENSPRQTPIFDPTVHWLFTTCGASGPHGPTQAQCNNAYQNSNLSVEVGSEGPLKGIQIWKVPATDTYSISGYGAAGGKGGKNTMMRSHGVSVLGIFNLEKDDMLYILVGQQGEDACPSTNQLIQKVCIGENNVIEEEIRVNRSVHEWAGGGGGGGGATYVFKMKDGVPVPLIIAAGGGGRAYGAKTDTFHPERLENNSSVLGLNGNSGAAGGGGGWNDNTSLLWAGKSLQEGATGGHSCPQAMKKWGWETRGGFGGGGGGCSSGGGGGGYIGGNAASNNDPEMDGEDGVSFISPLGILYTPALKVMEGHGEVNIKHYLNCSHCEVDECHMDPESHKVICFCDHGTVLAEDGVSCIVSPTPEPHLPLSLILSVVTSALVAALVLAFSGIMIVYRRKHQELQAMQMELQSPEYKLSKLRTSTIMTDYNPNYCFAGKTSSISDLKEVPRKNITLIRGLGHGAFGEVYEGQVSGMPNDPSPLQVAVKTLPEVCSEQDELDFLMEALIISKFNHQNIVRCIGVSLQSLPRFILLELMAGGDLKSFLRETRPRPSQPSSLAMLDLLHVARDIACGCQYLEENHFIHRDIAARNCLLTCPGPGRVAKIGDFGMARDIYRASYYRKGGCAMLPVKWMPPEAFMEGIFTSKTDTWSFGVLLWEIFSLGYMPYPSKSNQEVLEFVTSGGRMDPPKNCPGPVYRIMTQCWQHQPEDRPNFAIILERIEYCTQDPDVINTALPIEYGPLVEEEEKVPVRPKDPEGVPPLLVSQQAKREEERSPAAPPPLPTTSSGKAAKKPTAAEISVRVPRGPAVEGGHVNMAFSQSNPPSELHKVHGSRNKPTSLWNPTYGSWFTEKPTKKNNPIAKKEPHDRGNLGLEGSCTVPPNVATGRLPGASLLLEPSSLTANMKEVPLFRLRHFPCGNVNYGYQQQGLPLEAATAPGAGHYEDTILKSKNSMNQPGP
Experiment [6] concerns the target T3, Dual specificity mitogen-activated protein kinase kinase 6 (Homo sapiens) (UniProt P52564).
T3 sequence (whole entry): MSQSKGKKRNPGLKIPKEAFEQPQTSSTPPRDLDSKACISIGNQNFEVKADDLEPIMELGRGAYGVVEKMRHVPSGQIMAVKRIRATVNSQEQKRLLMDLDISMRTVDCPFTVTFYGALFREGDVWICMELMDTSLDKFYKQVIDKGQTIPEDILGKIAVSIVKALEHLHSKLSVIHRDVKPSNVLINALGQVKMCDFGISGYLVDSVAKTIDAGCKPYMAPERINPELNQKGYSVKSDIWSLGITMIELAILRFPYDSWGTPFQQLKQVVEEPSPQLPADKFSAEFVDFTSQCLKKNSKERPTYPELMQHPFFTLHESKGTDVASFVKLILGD
The experiment is described as follows: Selectivity interaction (KinomeScan (DiscoverX)) EUB0000045b MAP2K6.

For experiment [7], the target named is Tyrosine-protein kinase SYK (Homo sapiens, UniProt P43405). The experiment is described as follows: Selectivity interaction (ProQinase) EUB0000171b SYK.
Experiment [8] has as its target T4, TGF-beta receptor type-1 (Homo sapiens) (UniProt P36897).
T4 sequence (whole entry): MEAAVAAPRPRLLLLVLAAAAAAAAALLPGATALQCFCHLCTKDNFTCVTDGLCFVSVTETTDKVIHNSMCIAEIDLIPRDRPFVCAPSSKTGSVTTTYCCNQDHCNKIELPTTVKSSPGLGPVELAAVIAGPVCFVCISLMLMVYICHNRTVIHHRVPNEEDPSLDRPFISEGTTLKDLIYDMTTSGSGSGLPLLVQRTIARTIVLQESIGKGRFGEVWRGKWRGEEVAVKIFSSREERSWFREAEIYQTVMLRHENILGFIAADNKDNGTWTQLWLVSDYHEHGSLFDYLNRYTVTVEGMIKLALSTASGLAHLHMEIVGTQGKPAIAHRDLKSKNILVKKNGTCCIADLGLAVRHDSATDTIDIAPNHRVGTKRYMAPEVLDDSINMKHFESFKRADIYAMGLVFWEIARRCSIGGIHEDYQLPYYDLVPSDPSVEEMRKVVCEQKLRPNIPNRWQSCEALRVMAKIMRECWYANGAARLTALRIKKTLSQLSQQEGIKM
Briefly: Selectivity interaction (KinomeScan (DiscoverX)) EUB0000092b TGFBR1. Conditions: at 10 µM.

The record followed here is ChEMBL document CHEMBL5465560, “Selectivity Literature for EUbOPEN Chemogenomic Library” (2024).

Sequence of MAP kinase-activated protein kinase 2 (P49137 whole entry, looked up): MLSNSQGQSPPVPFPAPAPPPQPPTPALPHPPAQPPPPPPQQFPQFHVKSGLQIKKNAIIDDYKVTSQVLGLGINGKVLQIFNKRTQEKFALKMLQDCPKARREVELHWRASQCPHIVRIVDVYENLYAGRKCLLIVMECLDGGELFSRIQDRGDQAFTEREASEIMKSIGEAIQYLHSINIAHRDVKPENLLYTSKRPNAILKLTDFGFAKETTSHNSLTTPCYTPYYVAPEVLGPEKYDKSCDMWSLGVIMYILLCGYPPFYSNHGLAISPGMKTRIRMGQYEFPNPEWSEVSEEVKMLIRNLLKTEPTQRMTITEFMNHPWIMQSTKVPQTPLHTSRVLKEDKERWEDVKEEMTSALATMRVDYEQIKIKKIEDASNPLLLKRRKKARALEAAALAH

In turn, `Cc1cc([C@@H](C)Nc2ccccc2C(=O)O)c2nc(N3CCOCC3)cc(=O)n2c1` [AZD-6482] came in with a % of control in experiment [1] of 100%.

With `CC[C@@H]1[C@H](F)C(=O)N[C@@H]1COc1nccc2cc(C(N)=O)c(OC)cc12` [ZIMLOVISERTIB], the % of inhibition was determined as 5% in experiment [2] and 74% in experiment [3].

With `C=CC(=O)Nc1cc(-n2c(=O)ccc3cnc4ccc(-c5ccc(NS(C)(=O)=O)cc5)cc4c32)ccc1C`, the % of control in experiment [4] (at 1 µM) was 100%; in experiment [4] (at 10 µM), 100%; in experiment [5] (at 1 µM), 100%; in experiment [5] (at 10 µM), 100%; in experiment [6] (at 1 µM) it was 100%; in experiment [6] (at 10 µM), 70%.

For the compound `C=CC(=O)Nc1cccc(C(=O)Nc2ccc(Nc3cc(-c4[nH]c(SC)nc4C)ccn3)cc2)c1`, the % of control turned out to be 94% in experiment [7] (at 1 µM) and 86% in experiment [7] (at 5 µM).

As for `CCC(=O)N1CCN(c2ccc(-n3c(=O)ccc4cnc5ccc(-c6cnc7ccccc7c6)cc5c43)cc2C(F)(F)F)CC1`, the % of control in experiment [8] was found to be 70%.
